Assay results published in the OligoGym collection.
Where “and” joins values, the source holds several entries; their conditions need not be identical. Equal values may be shown once. After the bases stand the sugars from the 5' end (letter, count) and the backbone: PS all phosphorothioate, else s phosphorothioate and o phosphodiester by linkage. Methylation of C is not given here. e = 2'-O-(2-methoxyethyl) (MOE); k = constrained ethyl (cEt); d = 2'-deoxy (DNA)

Target: IRF4
Conditions: ASO

Sequence | target mRNA inhibition (SK-MEL-28, 4 µM) | target mRNA inhibition (MM.1R, 1 µM) | also measured
GCATAAAAGGTTCCTG (sugars k4 d8 k4, PS) | 47% | – | target mRNA inhibition (MM.1R, 0.074 µM): 0%; target mRNA inhibition (MM.1R, 0.222 µM): -3%; target mRNA inhibition (MM.1R, 0.666 µM): -7%; target mRNA inhibition (MM.1R, 2 µM): 3%; target mRNA inhibition (SK-MEL-28, 0.185 µM): 4% and 9% and 17%; target mRNA inhibition (SK-MEL-28, 5 µM): 34% and 37% and 50%; target mRNA inhibition (SK-MEL-28, 15 µM): 75% and 72% and 89%
CCGCACTCACTCGCAG (sugars k3 d10 k3, PS) | 8% | – | –
ACAGATGGCATGCGAA (sugars k3 d10 k3, PS) | – | 19% | –
AATCTGGATGAGCTTA (sugars k3 d10 k3, PS) | – | 4% | –
CCTTCAGATTTACACC (sugars k3 d10 k3, PS) | – | -9% | –
CCGCGCTCATGCCGAA (sugars k3 d10 k3, PS) | 45% | – | –
CTTTTTTGGCTCCCTC (sugars k4 d8 k4, PS) | 46% | – | target mRNA inhibition (MM.1R, 0.074 µM): -3%; target mRNA inhibition (MM.1R, 0.222 µM): -3%; target mRNA inhibition (MM.1R, 0.666 µM): 9%; target mRNA inhibition (MM.1R, 2 µM): 25%; target mRNA inhibition (SK-MEL-28, 0.185 µM): 4% and 9% and 8%; target mRNA inhibition (SK-MEL-28, 5 µM): 45% and 42% and 62%; target mRNA inhibition (SK-MEL-28, 15 µM): 63% and 68% and 81%
TGCTACTGCGGACATC (sugars k3 d10 k3, PS) | 43% | – | –
TTTATGCCCTCGCTCA (sugars k3 d10 k3, PS) | 24% | – | –
GTAAACTGCCTTAGGG (sugars k3 d10 k3, PS) | 44% | – | –
TCTATAGTGTTCCAGG (sugars kddddddddddkekek, PS) | – | 16% | –
ATATGACGACTTAAGC (sugars k3 d10 k3, PS) | 38% | – | –
ACTCATGGAGGATCAT (sugars k3 d10 k3, PS) | 19% | – | –
TAATGTAGGGATACAG (sugars k3 d10 k3, PS) | 78% | – | –
TCATATGGCTAAACCT (sugars k3 d10 k3, PS) | 49% | – | –
AATAAGCTCATCTGCC (sugars k3 d10 k3, PS) | 36% | – | –
GACCTTTACTTCATTC (sugars k3 d10 k3, PS) | 52% | – | –
GAGATACTTGTACTGT (sugars k3 d10 k3, PS) | – | 49% and 57% | target mRNA inhibition (MM.1R, 0.0625 µM): -2%; target mRNA inhibition (MM.1R, 0.25 µM): 18%; target mRNA inhibition (MM.1R, 4 µM): 84%
ATCTGAATTGTTACTA (sugars k3 d10 k3, PS) | 12% | – | –
GGGAGATCCGGCAGCC (sugars k4 d8 k4, PS) | -13% | – | –
GGGAACAGGACCTGGT (sugars k3 d10 k3, PS) | 55% | – | –
GTGCAAGATGACTCCA (sugars k3 d10 k3, PS) | 56% | – | –
ATGAGTCGGTCACTTG (sugars k3 d10 k3, PS) | 78% and 72% | – | –
TGGAACTCTAGTGTCC (sugars k3 d10 k3, PS) | 2% | – | –
GCGCGGAGGACCTCGC (sugars k3 d10 k3, PS) | 10% | – | –

Sequence | target mRNA inhibition (SK-MEL-28, 4 µM) | target mRNA inhibition (MM.1R, 1 µM) | also measured
CACTATGGTAGGAGTG (sugars k3 d10 k3, PS) | -12% | – | –
AATATAGTTGTCTGGC (sugars k3 d10 k3, PS) | 50% | – | –
GCACATCAATGTTTTA (sugars kkdddddddddekeke, PS) | – | 10% and 12% | –
CTGCGAAGCGCGCGCG (sugars k3 d10 k3, PS) | – | -6% | –
CGGACGCACGGAGAGG (sugars k3 d10 k3, PS) | 28% | – | –
CTCGAGGCCAACGACT (sugars k3 d10 k3, PS) | 1% | – | –
ACAGAGAGTCCGACGC (sugars k3 d10 k3, PS) | – | -8% | –
ACCGACTCTTTTTTTA (sugars k3 d10 k3, PS) | – | -2% | –
ATGAGATATTCCTCTC (sugars k3 d10 k3, PS) | 32% | – | –
TGGATTGCTGATGTGT (sugars k3 d10 k3, PS) | – | 71% and 75% | target mRNA inhibition (MM.1R, 0.0625 µM): 45%; target mRNA inhibition (MM.1R, 0.25 µM): 58%; target mRNA inhibition (MM.1R, 4 µM): 90%
GATCACTCAGAATTTT (sugars k3 d10 k3, PS) | 50% | – | –
AGATACAAAACGGACT (sugars k3 d10 k3, PS) | – | -15% | –
CTTTAGTGTCGCCATG (sugars k3 d10 k3, PS) | 29% | – | –
GAGAGCTACGCAATCT (sugars k3 d10 k3, PS) | 57% | – | –
CTTGCAGCTCTGACAA (sugars k3 d10 k3, PS) | 9% | – | –
ACCATTCAGACAGATG (sugars k3 d10 k3, PS) | 30% | – | –
GCACATCAATGTTTTA (sugars kkddddddddddkeke, PS) | – | 49% and 50% | –
GTTTATTTCCTACTCT (sugars k3 d10 k3, PS) | 16% | – | –
CGTGTGCTTGCCAAGC (sugars kkdddddddddekeke, PS) | – | 47% and 36% | –
TGCGAAGAATTTTAGC (sugars k3 d10 k3, PS) | 41% | – | –
GGTTGGCTGGTCTTTG (sugars kkdddddddddekeke, PS) | – | 73% and 66% | target mRNA inhibition (MM.1R, 0.0625 µM): 34%; target mRNA inhibition (MM.1R, 0.25 µM): 47%; target mRNA inhibition (MM.1R, 4 µM): 84%
GACAGTGACTTGCATC (sugars k2 d9 e3 k2, PS) | – | 24% | –
TACACTTTGTACGGGT (sugars k3 d10 k3, PS) | 28% | – | –
ACGTGTGCTTGCCAAG (sugars kkddddddddddkeke, PS) | – | 6% and 26% | –
AAGCATTTTATCATCC (sugars k3 d9 k3 e1, PS) | – | 33% | –

Sequence | target mRNA inhibition (SK-MEL-28, 4 µM) | target mRNA inhibition (MM.1R, 1 µM) | also measured
CCTTAAGCTATTTGGT (sugars k3 d10 k3, PS) | – | -786% | –
CAAGTGTCTAAAGTCC (sugars kdddddddddkekeke, PS) | – | 11% and 10% | –
GTCCTGCTTGCCCGCG (sugars k3 d10 k3, PS) | 31% | – | –
GTGAAACAGCAGTTCT (sugars k3 d10 k3, PS) | 62% | – | –
GCAAGTCTACAGCCCC (sugars k3 d10 k3, PS) | – | – | target mRNA inhibition (MM.1R, 0.0625 µM): -7%; target mRNA inhibition (MM.1R, 0.25 µM): 7%; target mRNA inhibition (MM.1R, 4 µM): 68%
AGTGATGTCAGGTTTT (sugars kkkddddddddkekek, PS) | – | 37% | –
ACTTATTTGTGGCTCA (sugars k3 d10 k3, PS) | – | 36% | –
AGCTAGTTCATTCCCT (sugars k3 d10 k3, PS) | 48% | – | –
TGCAACTGGCTCACTA (sugars k3 d10 k3, PS) | 17% | – | –
GGACGCACGGAGAGGG (sugars k3 d10 k3, PS) | – | 15% | –
TCGCAGGAGCGCGGAG (sugars k3 d10 k3, PS) | -37% | – | –
TTTATGCGAAGAATTT (sugars k3 d10 k3, PS) | 33% | – | –
GGCCTTAGCCTTCCTG (sugars k3 d10 k3, PS) | 17% | – | –
TACTGCTTGAGGTTTT (sugars kkdddddddddekeke, PS) | – | 18% | –
GCAGTGATGTCAGGTT (sugars kkkddddddddkekek, PS) | – | 36% | –
CTTTGAGGCTGCGAAG (sugars k3 d10 k3, PS) | – | 2% | –
TAATCTGTATAGTTCT (sugars k3 d10 k3, PS) | – | 42% | –
AGCATTTTATCATCCG (sugars kkdddddddddekeke, PS) | – | 46% | –
TTCCACACTGGATATG (sugars k3 d10 k3, PS) | 41% | – | –
GAGGTAAATCTTCACT (sugars k3 d10 k3, PS) | 70% | – | –
GTCCGGTTAGCTCATC (sugars k3 d10 k3, PS) | 45% | – | –
CTTGGTCAATTTTCAC (sugars k3 d10 k3, PS) | 53% | – | –
AGTGTCTAAAGTCCCA (sugars kdddddddddkekeke, PS) | – | -12% and 12% | –
GTGCAGGAGAGGCTGA (sugars k3 d10 k3, PS) | 32% | – | –
CCACATACCTGAAACG (sugars k3 d10 k3, PS) | – | -9% | –

Sequence | target mRNA inhibition (SK-MEL-28, 4 µM) | target mRNA inhibition (MM.1R, 1 µM) | also measured
TTCGAGAGAAATATAC (sugars k3 d10 k3, PS) | – | 22% | –
TAATAGTAAGTTCTAG (sugars k3 d10 k3, PS) | 0% | – | –
AGCATTTTATCATCCG (sugars kkkddddddddkekek, PS) | – | 22% | –
CCAGGAAACCGCTGGC (sugars k3 d10 k3, PS) | 38% | – | –
GGCGACGACAGCTGCG (sugars k3 d10 k3, PS) | – | -15% | –
GTAAATGAGTCGGTCA (sugars k3 d10 k3, PS) | 79% | – | –
GAAAACTCTAACCCTA (sugars k3 d10 k3, PS) | 9% | – | –
CCCGACACGCGCCGCT (sugars k3 d10 k3, PS) | 12% | – | –
GTACATGGCAGTGGAG (sugars k3 d10 k3, PS) | 56% | – | –
CCGTCCGCGCCCGCGC (sugars k3 d10 k3, PS) | 61% | – | –
ACACTTTTAGAGAGGA (sugars kkkddddddddkekek, PS) | – | 15% | –
TGATAGTGGTGATGTC (sugars k3 d10 k3, PS) | 54% | – | –
GATGTGATAGCTGAGC (sugars kdddddddddkekeke, PS) | – | 18% | –
CTGCAAATCCCTCTTG (sugars k3 d10 k3, PS) | -33% | – | –
AGCATTTTATCATCCG (sugars kddddddddddkekek, PS) | – | 36% | –
GCACATCAATGTTTTA (sugars kddddddddddkekek, PS) | – | 13% and 0% | –
CCTAAGTACCTGAAAT (sugars k3 d10 k3, PS) | 11% | – | –
TGAACGGAAGTTTACA (sugars k3 d10 k3, PS) | – | 14% | –
GACAAGTGCTAGGATT (sugars k3 d10 k3, PS) | 61% | – | –
GACATACCTACAAGCA (sugars k3 d10 k3, PS) | 50% | – | –
TCTGTAGGGCGACTAA (sugars k3 d10 k3, PS) | 65% | – | –
AACAAACAGAGGAGCG (sugars k3 d10 k3, PS) | 16% | – | –
CGAAGAATTTTAGCAT (sugars k3 d10 k3, PS) | 58% | – | –
CAGTGACTTGCATCCA (sugars kkdddddddddkdkdk, PS) | – | 36% | –
